Here are results for seven compounds from ChEMBL document CHEMBL3430912, “GSK Tres Cantos Anti-Kinetoplastid Screening (TCAKS) Data”.

Series [1] relates to Leishmania donovani. Put plainly: GSK_TCAKS: pIC50 Leishmania donovani viability assay using fluorescence intensity. Assay plates (1536-well) were prepared by adding 30nL per well of compound. For single shot assay, the final compound concentration was 5uM. […] Briefly, eGFP LdBOB axenic amastigotes were harvested, fixed and counted in a CASY cell counter (Roche-Applied Science). A final concentration of 1.5 * 10^5 cells per well were prepared in amastigote media containing 500 U/mL penicillin/streptomycin (Invitrogen) and 6uL was dispensed to each experimental well using a Multidrop Combi dispenser (Thermo Scientific). 6uL of assay media was dispensed to control columns used as reference for 100% compound response. Following incubation for 72 h at 37C, 5% CO2, 2 uL of resazurin was added to each well at a final concentration of 0.5 mM in phosphate buffered saline (PBS) with IGEPAL (Sigma-Aldrich), 0.05% (v/v). The series is classed as functional, organism-based. (In general: Resazurin is reduced to fluorescent resorufin, in cell work by metabolically active cells.)

Series [2] relates to Trypanosoma cruzi. The series can be described thus: (§1) GSK_TCAKS: pIC50 H2C9 Imaging: H9c2 Host Cardiomyocytes. […] Cells were then washed once with PBS before infection. T. cruzi trypomastigotes, collected at days 5 to 8 after infection from LLC-MK2 parasite infected cultures, were allowed to swim out for 4h at 37C from a centrifuged pellet (2,500 rpm/10 min/room temperature). Trypomastigotes were then collected and counted in a CASY Cell Counter. Trypomastigotes, in supplemented DMEM, were added to H9c2 cultures in a multiplicity of infection of 1 and incubated for 18 h. Cells were washed once with PBS before incubation of the infected H9c2 monolayer with trypsin (Life-Technologies) to detach cells from the flask. Cells were counted in a CASY Cell Counter using a 150 um capillary and their density set at 5 * 10^4 cells per mL in supplemented assay DMEM. Infected H9c2 were dispensed into 384-well poly-lysine coated assay plates at 50uL per well using a Multidrop Combi dispenser. After seeding them, the plates were incubated at 37C, 5% CO2 for 72h. Cultures were then fixed and stained by addition of 50 uL of a solution containing 8% formaldehyde and 4 uM DRAQ5 DNA dye (BioStatus, UK) per well. […] Five images were collected per well for reliable statistical analysis. Automated image analysis was performed with a script developed on Acapella High Content Imaging and Analysis Software (PerkinElmer). Output: Number of H9c2 Host Cardiomyocytes nuclei to determine drug-related cytotoxicity. Format: functional, organism-based, Rattus norvegicus. Conditions: H9c2, 4 h.

For series [3], the system named is Trypanosoma brucei brucei. The series can be described thus: GSK_TCAKS: pIC50 Trypanosoma brucei viability assay using fluorescence intensity. Assay plates (1536-well) were prepared by dispensing 25nL of compound solution per well using an Echo acoustic dispenser (Labcyte). The series is classed as functional, organism-based. Conditions: Lister 427, 2 h.
Series [4] relates to Trypanosoma brucei brucei. The series can be described thus: GSK_TCAKS: pIC50 Trypanosoma brucei viability assay using luminiscence. Assay plates (1536-well) were prepared. T. brucei cultures were harvested and counted in a CASY cell counter. A parasite suspension was prepared at a final concentration of 5 * 10^4 cells/mL in complete HMI9 medium and 6uL was dispensed to all wells containing compounds using a Multidrop Combi dispenser. 6uL of HMI9 media with 0.4% DMSO were dispensed to control columns. Plates were incubated for 24 h at 37C, 5% CO2 then tempered for 10 min at room temperature. ATP content was quantified by adding 4 uL of CellTiter-Glo Reagent (Promega) according to the manufacturer's instructions. Luminescence was measured using a ViewLux. The series is classed as functional, organism-based. Conditions: Lister 427, CASY. For orientation: ATP-based viability assays read luminescence as a measure of living cells.

Series [5] relates to Trypanosoma cruzi. The series can be described thus: GSK_TCAKS: pIC50 Trypanosoma cruzi viability assay using beta-GAL activity. This assay was run at single shot at 5uM compound concentration per well. The biological reagents consisted of NIH-3T3 host cells and trypomastigotes parasitic cells; both cell types were set to a 3.3 * 10^5 cells/mL dilution in assay DMEM by means of a CASY cell counter device using a 60um capillary. 6 uL of the mixture were dispensed per well (about 1 * 10^3 host-cells and 1 * 10^3 parasites) with a Multidrop Combi dispenser. […] In all wells, the percentage of DMSO never exceeded 0.5%. Plates incubated for four days at 37C, 5% CO2. The substrate used for the assay fluorescence intensity (FLINT) readout was resorufin-beta-D-galactopiranoside (Sigma-Aldrich) at 5uM per well. It was diluted in PBS supplemented with the soft detergent Igepal (Fluka). The conditions noted are these: Tulahuen, NIH3T3. The series is classed as functional, organism-based, Mus musculus.

Series [6] concerns NIH3T3. Put plainly: GSK_TCAKS: pIC50 NIH 3T3 cell line viability assay using luminiscence. Tissue culture surface treated assay plates (1536-well) were used. […] The 100% cells survival control was determined exposing the host-cells to a 0.5% DMSO concentration, whereas the 100% toxicity control was achieved by seeding the cells in presence of Amphotericin B at 50uM. Plates were incubated for four days at 37C, 5% CO2. The assay readout was developed by addition of 5uL of CellTiter-Glo Reagent following the manufacturer's instructions. Luminiscence was measured using a ViewLux. The series is classed as functional, cell-based. Conditions: Mus musculus, NIH3T3, 96 h.

Series [7] has as its system Trypanosoma cruzi. Described as §1, with “Trypanosoma cruzi” for “H2C9”, “Infected Cells.” for “H9c2 Host Cardiomyocytes.”, “percentage” for “Number”, “infected cells per well as a second infection marker.” for “H9c2 Host Cardiomyocytes nuclei to determine drug-related cytotoxicity.”. The series is classed as functional, organism-based, Rattus norvegicus. Conditions: H9c2, 4 h.

Series [8] concerns Trypanosoma cruzi. The series is described as §1, with “Trypanosoma cruzi” for “H2C9”, “Amastigotes/Cell.” for “H9c2 Host Cardiomyocytes.”, “number” for “Number”, “amastigotes per cell as infection level measurement.” for “H9c2 Host Cardiomyocytes nuclei to determine drug-related cytotoxicity.”. Conditions: H9c2, 4 h. The series is classed as functional, organism-based, Rattus norvegicus.

The test system of series [9] is Leishmania donovani. The series can be described thus: GSK_TCAKS: pIC50 Leishmania donovani Imaging: Amastigotes/Macrophages. Assay plates (384-well) were prepared by adding 250nL of compound to each well. For single shot assay, the final compound concentration was 5 uM. […] Automated image analysis was performed with a script developed on Acapella High Content Imaging and Analysis Software (PerkinElmer). Output: Average number of amastigotes per macrophage cell were reported for each well. The conditions noted are these: THP-1. Format: functional, organism-based, Homo sapiens.

The subject of series [10] is Leishmania donovani. Put plainly: GSK_TCAKS: pIC50 Leishmania donovani Imaging: THP-1 Host Macrophages. Assay plates (384-well) were prepared by adding 250nL of compound to each well. For single shot assay, the final compound concentration was 5 uM. […] Automated image analysis was performed with a script developed on Acapella High Content Imaging and Analysis Software (PerkinElmer). Output: THP-1 cell count were reported for each well. The series is classed as functional, organism-based, Homo sapiens.

For series [11], the target named is Sterol 14-alpha demethylase (Trypanosoma cruzi (strain CL Brener), UniProt Q7Z1V1). Put plainly: GSK_TCAKS: pIC50 CYP51 from Trypanosoma cruzi. The series is classed as functional.
Chain of Sterol 14-alpha demethylase (Q7Z1V1 whole entry): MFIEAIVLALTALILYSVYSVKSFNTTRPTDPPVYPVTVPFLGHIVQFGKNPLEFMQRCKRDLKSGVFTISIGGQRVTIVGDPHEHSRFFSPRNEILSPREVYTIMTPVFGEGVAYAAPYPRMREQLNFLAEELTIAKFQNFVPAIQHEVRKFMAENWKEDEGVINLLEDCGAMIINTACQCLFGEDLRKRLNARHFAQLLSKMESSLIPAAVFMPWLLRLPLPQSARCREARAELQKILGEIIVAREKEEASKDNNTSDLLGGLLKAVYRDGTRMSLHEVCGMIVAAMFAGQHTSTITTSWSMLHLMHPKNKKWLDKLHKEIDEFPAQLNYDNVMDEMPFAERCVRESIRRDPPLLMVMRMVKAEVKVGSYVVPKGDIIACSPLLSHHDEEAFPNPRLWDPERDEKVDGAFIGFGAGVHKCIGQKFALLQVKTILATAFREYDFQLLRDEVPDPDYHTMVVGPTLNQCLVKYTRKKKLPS
The test system of series [12] is Leishmania donovani. The series can be described thus: GSK_TCAKS: pIC50 Leishmania donovani Imaging: Infected Macrophages. Assay plates (384-well) were prepared by adding 250nL of compound to each well. For single shot assay, the final compound concentration was 5 uM. […] Automated image analysis was performed with a script developed on Acapella High Content Imaging and Analysis Software (PerkinElmer). Output: Percent of infected macrophage cells were reported for each well. The series is classed as functional, organism-based, Homo sapiens. Conditions: THP-1.

Series [13] in a line: GSK_TCAKS: pIC50 HepG2 human cell line viability assay using luminiscence. […] Seeding density was checked to ensure that new mono-layers were not more than 50% confluent at the time of harvesting. Cell suspension was added to 500 mL of the same medium at a final density of 1.2 * 10^5 cells/mL. This cell suspension was dispensed (25 uL, 3000 cells per well) into 384-well clear-bottom plates using a Multidrop Combi dispenser. Prior to addition of the cell suspension, the screening compounds (250 nL) were pre-dispensed into the plates with an Echo liquid handler. Plates were incubated for 48 h at 37C, 5% CO2. After incubation, plates equilibrated at room temperature for 30 min before proceeding to develop the luminescent signal. The signal developer, CellTiter-Glo Reagent, was allowed to equilibrate at room temperature for 30 min and added to the plates (25uL per well) using a Multidrop Combi dispenser. Plates were left for 10 min at room temperature for stabilization and then read using a ViewLux. The series is classed as toxicity, cell-based.

The term IC50 denotes the point on the concentration scale where inhibition reaches its midpoint.

On to `CC(Cn1ccnc1)NC(=O)C1CC1c1cccc(Cl)c1Cl` (stereo not given), for which the IC50 in [1] was 15.8 µM; in series [2], above 50.1 µM; in series [3] it was above 39.8 µM; in [4] it was above 39.8 µM; in [5] it was 0.141 µM; in series [6], above 50.1 µM. The IC50 in series [7] is 0.251 µM; in [8], 0.2 µM; in series [9], 10 µM; in [10], above 50.1 µM; in series [11] it was 0.126 µM; in [12] it was above 50.1 µM. Besides, the IC50 at 48 h in [13] is above 100 µM.

For the compound `O=C(NCCc1ccccc1Cl)c1cccn1-c1cccnc1`, the IC50 in series [1] was 6.31 µM; in series [2] it was above 50.1 µM; in series [3], 31.6 µM; in [4], above 39.8 µM; in series [5], 0.398 µM; in series [6], 31.6 µM. Besides, the IC50 in [7] was 0.501 µM; in [8], 0.501 µM; in series [9], above 50.1 µM; in series [10], above 50.1 µM; in [11], 0.0794 µM; in [12], above 50.1 µM. In addition, the IC50 at 48 h in series [13] is above 100 µM.

On to `CC(C)(C)C(Cn1ccnc1)NC(=O)c1ccc2nc(C3CC3)oc2c1` (stereo not given), for which the IC50 was 20 µM in series [1]; above 50.1 µM in series [2]; above 39.8 µM in [3]; above 39.8 µM in [4]; 0.1 µM in series [5]; above 50.1 µM in series [6]. Besides, the IC50 in series [7] is 0.1 µM; in series [8] it was 0.0794 µM; in series [9], above 50.1 µM; in series [10] it was 15.8 µM; in [11] it was 0.1 µM; in [12], above 50.1 µM. In series [13], this compound had an IC50 at 48 h above 100 µM.

For the compound `Cc1cc2cncn2c(C2CCCCN2C(=O)c2cccs2)n1` (stereo not given), the IC50 in series [1] is 0.398 µM; in series [2], above 50.1 µM; in series [3], above 39.8 µM; in [4], above 39.8 µM; in [5] it was 0.0251 µM; in [6] it was above 50.1 µM. The IC50 in series [7] was 0.0631 µM; in series [8] it was 0.0631 µM; in series [9] it was above 50.1 µM; in series [10], above 50.1 µM; in series [11], 0.1 µM; in series [12], above 50.1 µM. This compound also gave an IC50 at 48 h in [13] above 100 µM.

Take `Cc1cc(C)nc(N2CCC(N(Cc3cccnc3)C(=O)c3cccc(C#N)c3)CC2)n1`: the IC50 in series [1] was 5.01 µM; in [2] it was above 50.1 µM; in series [3], above 39.8 µM; in series [4], above 39.8 µM; in series [5], 0.316 µM; in series [6] it was 7.94 µM. Also, the IC50 in series [7] is 0.316 µM; in series [8] it was 0.398 µM; in [9], above 50.1 µM; in series [10], above 50.1 µM; in [11], 0.126 µM; in series [12], above 50.1 µM. Further, in series [13], the IC50 at 48 h was above 100 µM.

For the compound `O=C(NCC(c1cccnc1)N1CCc2ccccc2C1)C(=O)Nc1cccc(Cl)c1` (stereo not given), the IC50 in series [1] was 1.26 µM; in series [2], 25.1 µM; in series [3] it was 15.8 µM; in series [4] it was 20 µM; in [5], 0.2 µM; in series [6], 25.1 µM. Moreover, the IC50 in [7] is 0.0794 µM; in series [8], 0.0631 µM; in series [9] it was above 50.1 µM; in series [10], above 50.1 µM; in series [11], 0.0631 µM; in series [12] it was above 50.1 µM. The IC50 at 48 h in series [13] was above 100 µM.

As to `Cn1cncc1CN1CCC2(CC1)COC(Cc1ccccc1)C2` (stereo not given), the IC50 in series [1] was 12.6 µM; in [2] it was above 50.1 µM; in series [3], above 39.8 µM; in [4], above 39.8 µM; in series [5] it was 0.316 µM; in series [6], 25.1 µM. Besides, the IC50 in [7] is 0.501 µM; in series [8], 0.316 µM; in [10] it was above 50.1 µM; in series [11], 1 µM; in [12], above 50.1 µM. Besides, the IC50 at 48 h in series [13] was above 100 µM.
